This passage reports CC50 and EC50 results from patent publication US20230091047A1 (priority 2019, published 2023).

Like-named read-outs stand apart in the source and are kept apart here. Bounds are passed on as bounds.

For one series, the system named is HepG2 cells. The series is described as follows: in vitro. The class given is cell-based. The conditions noted are these: HepG2 or HepG2.117 cells, mean value, read-out: CC50 (μM, mean value). Put shortly: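 Luminescent ATP quantitation served as the viability endpoint following a 3- or 4-day incubation with test compounds.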
The test system of series [1] is HBV (HepG2.117 cell line, inducibly HBV producing). Briefly: Anti-HBV activity: intracellular HBV DNA by real-time PCR in HepG2.117 cells after 3 days of treatment. Format: cell-based, hepatitis B virus. An outline of the steps: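 Readout is intracellular HBV DNA, measured by real-time PCR with HBV-specific primers and probe after 3 days of exposure to serial compound dilutions. Cells are the stable HepG2.117 line, where HBV replication is induced in the absence of doxycycline.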

[2] abbreviates: ATPlite, 3-days incubation (not marked with *).
Where [3] appears, read: HepG2.117 cells, intracellular HBV DNA by real-time PCR, 3 days of treatment, mean value; read-out: EC50 (μM, mean value).
Setting [4] is: 3-days incubation (unmarked values), ATPlite.
[5] abbreviates: HepG2.117 cells, 3 days of treatment, intracellular HBV DNA by real-time PCR; mean value; read-out: EC50 (μM, mean value).

Regarding `CCc1cc(C(=O)NC)ccc1-n1c(NC(C)C)nc2c(c1=O)C[C@@H](C)N(C(=O)c1ccc(Cl)c(Cl)c1)C2` (single isomer, unassigned) [Compound C383b], the CC50 with HepG2 cells (setting [2]) was above 45 µM. Also, the 50% effective concentration (EC50) in series [1] (setting [3]) was found to be 0.17 µM.
On the same counts, the results for `Cc1cc(-c2ncc[nH]2)ccc1-n1c(NC(C)C)nc2c(c1=O)C[C@@H](C)N(C(=O)c1ccc(Cl)c(Cl)c1)C2` (single isomer, unassigned) [Compound C399b] are 27 µM and 0.16 µM.
Consider `CNC(=O)c1cnc(-n2c(N[C@@H](C)c3ccc(OC(F)(F)F)cc3)nc3c(c2=O)C[C@@H](C)N(C(=O)c2ccc(Cl)c(Cl)c2)C3)cn1` [Compound C617], for which, in the series on HepG2 cells (setting [2]), the CC50 is above 50 µM. Moreover, in series [1] (setting [3]), the concentration giving a half-maximal response (EC50) is 0.08 µM.
Take `CNC(=O)c1ccc(-n2c(NC(C)C)nc3c(c2=O)C[C@@H](C)N(C(=O)c2ccc(Cl)c(C(F)(F)F)c2)C3)c(Cl)c1` (single isomer, unassigned) [Compound C639b]: the CC50 with HepG2 cells (setting [2]) is 25.4 µM. In addition, the concentration for a half-maximal effect (EC50) in series [1] (setting [3]) was found to be 0.02 µM.
`COc1ccc(CNc2nc3c(c(=O)n2-c2ccccc2OC)C[C@H](C)N(C(=O)c2ccc(Cl)c(Cl)c2)C3)cc1` (single isomer, unassigned) [Compound C36Ba]: the CC50 in the series on HepG2 cells (setting [4]) is above 50 µM. In series [1] (setting [5]), the EC50 is 1.21 µM.
As for `CNC(=O)c1ccc(-n2c(N[C@@H](C)c3ccccc3)nc3c(c2=O)C[C@@H](C)N(C(=O)c2ccc(Cl)c(Cl)c2)C3)c(Cl)c1` [Compound C386], the CC50 in the series with HepG2 cells (setting [2]) is above 50 µM. Moreover, the concentration for a half-maximal effect (EC50) in series [1] (setting [3]) turned out to be 0.12 µM.
For the molecule `CNC(=O)c1ccc(-n2c(NC(C)C)nc3c(c2=O)C[C@@H](C)N(C(=O)c2ccc(Cl)c(Cl)c2)C3)c(C)c1` [Compound C300b, 4-[(6R)-7-(3,4-dichlorobenzoyl)-6-methyl-4-oxo-2-[(propan-2-yl)amino]-5,6,7,8-tetrahydropyrido[3,4-d]pyrimidin-3(4H)-yl]-N,3-dimethylbenzamide], the half-maximal cytotoxic concentration (CC50) in the series with HepG2 cells (setting [4]) was above 50 µM. For the same molecule, the EC50 in series [1] (setting [5]) turned out to be 0.09 µM.
As for `CNC(=O)c1ccc(-n2c(NC(C)C)nc3c(c2=O)C[C@@H](C)N(C(=O)c2ccc(Cl)c(Cl)c2)C3)c(OC)c1` (single isomer, unassigned) [Compound C314b], the CC50 in the series on HepG2 cells (setting [4]) was above 50 µM. Moreover, the EC50 in series [1] (setting [5]) turned out to be 0.22 µM.
As for `CC(C)Nc1nc2c(c(=O)n1-c1ccc(-c3ncc[nH]3)cc1Cl)C[C@@H](C)N(C(=O)c1ccc(Cl)c(Cl)c1)C2` [Compound C393], in the series on HepG2 cells (setting [2]), the CC50 is 24.1 µM. Further, the concentration for a half-maximal effect (EC50) in series [1] (Hepatitis B virus, HepG2.117, 72 h, HepG2.117 cells, intracellular HBV DNA by real-time PCR, 3 days of treatment, mean value; read-out: EC50 (μM, mean value)) was 0.17 µM.
In the case of `CNC(=O)c1ccc(-n2c(NC(C)C)nc3c(c2=O)C[C@@H](C)N(C(=O)c2ccc(Cl)c(C(F)(F)F)c2)C3)c(C2CC2)c1` (single isomer, unassigned) [Compound C661b], in the series with HepG2 cells (setting [2]), the CC50 came out at 25.4 µM. Also, in series [1] (setting [3]), the EC50 was 0.06 µM.
Consider `CNC(=O)c1ccc(-n2c(N[C@@H](C)C3CC3)nc3c(c2=O)C[C@@H](C)N(C(=O)c2ccc(Cl)c(C(F)(F)F)c2)C3)c(Cl)c1` (single isomer, unassigned) [Compound C676b], for which, in the series with HepG2 cells (setting [2]), the CC50 amounted to 28.7 µM. In addition, the EC50 in series [1] (setting [3]) amounted to 0.02 µM.
On to `CNC(=O)c1ccc(-n2c(NC(C)C)nc3c(c2=O)C[C@@H](C)N(C(=O)c2ccc(Cl)c(C(F)F)c2)C3)c(Cl)c1` (single isomer, unassigned) [Compound C685b], for which the half-maximal cytotoxic concentration (CC50) with HepG2 cells (setting [2]) was above 50 µM. In series [1] (setting [3]), the concentration giving a half-maximal response (EC50) was determined as 0.03 µM.
On to `CNC(=O)c1ccc(-n2c(N[C@@H](C)C3CC3)nc3c(c2=O)C[C@@H](C)N(C(=O)c2ccc(Cl)c(Cl)c2)C3)c(Cl)c1` (single isomer, unassigned) [Compound C387b], for which, in the series with HepG2 cells (setting [2]), the cytotoxic concentration (CC50) was 36.8 µM. For the same molecule, in series [1] (setting [3]), the EC50 came out at 0.06 µM.
Turning to `CNC(=O)c1ccc(-n2c(N3CC4CC3C4)nc3c(c2=O)C[C@@H](C)N(C(=O)c2ccc(Cl)c(C(F)(F)F)c2)C3)c(Cl)c1` (single isomer, unassigned) [Compound C701b], in the series on HepG2 cells (3-days incubation (unmarked values), ATPlite viability), the cytotoxic concentration (CC50) stood at 25.4 µM. For the same molecule, in series [1] (setting [5]), the EC50 was found to be 0.03 µM.
For `CNC(=O)c1ccc(-n2c(NC(C)C)nc3c(c2=O)C[C@@H](C)N(C(=O)c2ccc(Cl)c(C(F)(F)F)c2)C3)c(C2CC2)c1` (single isomer, unassigned) [Compound C661a], in the series on HepG2 cells (setting [2]), the CC50 was above 50 µM. In addition, the EC50 in series [1] (setting [3]) came out at 0.07 µM.
